Data on 17 molecules can be found in US11655216B2 (priority 2016, dated 2023).

Read-outs that look alike come from different tables or passages of the source.

The target in test [1] is T1, glutathione-S-transferase (GST) tagged LXRbeta LBD (ligand binding domain) (Homo sapiens, UniProt P55055).
T1 construct: purchased Invitrogen pv4658
T1 sequence (P55055 222-460 limits assumed): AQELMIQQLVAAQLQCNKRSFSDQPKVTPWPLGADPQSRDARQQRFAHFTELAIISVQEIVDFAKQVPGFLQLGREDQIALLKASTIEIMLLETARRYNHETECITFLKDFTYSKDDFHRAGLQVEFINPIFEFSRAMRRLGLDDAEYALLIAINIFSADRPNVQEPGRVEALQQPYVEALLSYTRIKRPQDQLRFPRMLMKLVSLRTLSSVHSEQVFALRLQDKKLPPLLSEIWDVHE
Put plainly: LanthaScreen TR-FRET Liver X Receptor Coactivator Assay, LXR beta. In kind it is biochemical. Particulars: for EC50: LXR beta IP, potency (Inflection Point), compound-induced co-activator recruitment, TR-FRET; for Emax: read-out: LXR beta actiivty at max dose, efficacy (% Emax) in relation to reference dual agonist T0901317. In outline:
(§1)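 TR-FRET read-out of coactivator recruitment: fluorescein-coactivator peptide plus Tb-anti-GST antibody added to LBD preincubated with compound; incubated at RT before reading.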

Test [2] addresses T2, glutathione-S-transferase (GST) tagged LXRalpha LBD (ligand binding domain) (Homo sapiens, UniProt Q13133).
T2 construct: purchased Invitrogen pv4655
T2 sequence (Q13133 209-447 limits assumed): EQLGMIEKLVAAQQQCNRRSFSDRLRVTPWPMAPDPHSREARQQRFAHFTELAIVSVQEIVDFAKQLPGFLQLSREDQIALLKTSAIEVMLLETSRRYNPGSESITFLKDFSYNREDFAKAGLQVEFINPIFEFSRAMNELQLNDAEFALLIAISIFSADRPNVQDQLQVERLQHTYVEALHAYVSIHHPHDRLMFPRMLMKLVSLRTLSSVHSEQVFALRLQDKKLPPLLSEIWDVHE
Briefly: biochemical. In outline: as §1

Setting [3] is: LXR alpha IP, potency (Inflection Point), compound-induced co-activator recruitment, TR-FRET.
Setting [4] is: read-out: LXR alpha actiivty at max dose, efficacy (% Emax) in relation to reference dual agonist T0901317.
[5] abbreviates: potency (Inflection Point), compound-induced co-activator recruitment, TR-FRET.

Consider `O=C(N[C@H]1CCOC1)c1ccc(OCCCCC2CCN(C(=O)[C@](O)(c3ccccc3)C(F)(F)F)CC2)cc1Cl` (single isomer, unassigned) [Example 8-6, 2-chloro-N-((S or R)-tetrahydrofuran-3-yl)-4-(4-(1-((R or S)-3,3,3-trifluoro-2-hydroxy-2-phenylpropanoyl)piperidin-4-yl)butoxy) benzamide], for which the EC50 in test [1] was determined as 86 nM; in test [2] (setting [3]), 1050 nM. The Emax came out at 75% in test [1] and 35% in test [2] (setting [4]).
Taken in the same sequence, the figures for `CN(C)C(=O)c1ccc(OCCCCC2CCN(S(=O)(=O)c3c(Cl)cccc3Cl)CC2)nc1Cl` [Example 7-2, 2-chloro-6-(4-(1-(2,6-dichlorophenylsulfonyl)piperidin-4-yl)butoxy)-N,N-dimethylnicotinamide] were 23 nM, 429 nM, 122% and 80%.
The matching figures for `CN(C)C(=O)c1ccc(OCCCCC2CCN(C(=O)C(O)(c3cccc(OC(F)(F)F)c3)C(F)(F)F)CC2)cc1Cl` (single isomer, unassigned) [Example 3-9, (R or S)-2-chloro-N,N-dimethyl-4-(4-(1-(3,3,3-trifluoro-2-hydroxy-2-(3-(trifluoromethoxy)phenyl)propanoyl)piperidin-4-yl)butoxy)benzamide]: 15 nM, 289 nM, 64% and 17%.
Taken in the same sequence, the figures for `CC(C)[C@@](O)(C(=O)N1CCC2(CC1)C[C@H]2CCOc1ccc(C(=O)N(C)C)c(Cl)c1)C(F)(F)F` (single isomer, unassigned) [Example 12-15, 2-chloro-4-(2-((S or R)-6-((R or S)-2-hydroxy-3-methyl-2-(trifluoromethyl)butanoyl)-6-azaspiro[2.5]octan-1-yl)ethoxy)-N,N-dimethylbenzamide] were 62 nM, 2090 nM, 79% and 37%.
As for `CN(C)C(=O)c1ccc(OCC[C@H]2CC23CCN(C(=O)[C@](N)(c2ccccc2)C(F)(F)F)CC3)cc1Cl` (single isomer, unassigned) [Example 12-9, 4-(2-((R or S)-6-((R or S)-2-amino-3,3,3-trifluoro-2-phenylpropanoyl)-6-azaspiro[2.5]octan-1-yl)ethoxy)-2-chloro-N,N-dimethylbenzamide], in test [1], the EC50 was 50 nM and the Emax is 65%. In addition, the “LXR alpha IP” value in test [2] (setting [5]) is “No IP”. The Emax in test [2] (setting [4]) was 0%.
`CC(COc1ccc(C(=O)N(C)C)c(Cl)c1)CC(C)C1CCN(C(=O)C(O)(c2ccccc2)C(F)(F)F)CC1` (single isomer, unassigned) [Example 31-1, 2-chloro-N,N-dimethyl-4-(2-methyl-4-(1-((R or S)-3,3,3-trifluoro-2-hydroxy-2-phenylpropanoyl)piperidin-4-yl)pentyloxy)benzamide]: the EC50 in test [1] was 25 nM; in test [2] (setting [3]), 284 nM. In addition, the results for the Emax in test [1] and in test [2] (setting [4]) were 56% and 27%, respectively.
The matching figures for `CN(C)C(=O)c1ccc(OCC(C)(C)CCC2CCN(C(=O)C(O)(c3ccccc3)C(F)(F)F)CC2)cc1Cl` (single isomer, unassigned) [Example 29-1, (R or S)-2-chloro-4-(2,2-dimethyl-4-(1-(3,3,3-trifluoro-2-hydroxy-2-phenylpropanoyl)piperidin-4-yl)butoxy)-N,N-dimethylbenzamide]: 173 nM, 911 nM, 48% and 27%.
On to `COc1cccc(C(O)(C(=O)N2CCC(CC(C)CC(C)Oc3ccc(C(=O)N(C)C)c(Cl)c3)CC2)C(F)(F)F)c1` (single isomer, unassigned) [Example 30-1, 2-chloro-N,N-dimethyl-4-(4-methyl-5-(1-((R or S)-3,3,3-trifluoro-2-hydroxy-2-(3-methoxyphenyl)propanoyl)piperidin-4-yl)pentan-2-yloxy)benzamide], for which, in test [1], the EC50 is 99 nM and the Emax was found to be 84%. For the same molecule, the “LXR alpha IP” value in test [2] was “No IP”. In test [2] (read-out: LXR alpha actiivty at max dose), the Emax is 8%.
In the case of `CN(C)C(=O)c1ccc(OC[C@@H]2C[C@H]2C2CCN(C(=O)C(C)(C)c3ccccc3)CC2)cc1Cl` (single isomer, unassigned) [Example 32-4, 2-chloro-N,N-dimethyl-4-(((1R,2S or 1S,2R)-2-(1-(2-methyl-2-phenylpropanoyl)piperidin-4-yl)cyclopropyl)methoxy) benzamide], in test [1], the EC50 worked out at 163 nM and the Emax turned out to be 60%. Further, the “LXR alpha IP” value in test [2] (setting [5]) is on record as “No IP”. Also, in test [2] (setting [4]), the Emax was 0%.
The matching figures for `CN(C)C(=O)c1ccc(OCCCCC2CCN(C(=O)c3c(F)cccc3F)CC2)nc1Cl` [Example 3-15, 2-chloro-6-(4-(1-(2,6-difluorobenzoyl)piperidin-4-yl)butoxy)-N,N-dimethylnicotinamide]: 328 nM, 80%, “No IP” and 14%.
Taken in the same sequence, the figures for `CN(C)C(=O)c1ccc(OCCCCC2CCN(C(=O)C3(c4ccccc4)CCCO3)CC2)cc1Cl` (single isomer, unassigned) [Example 3-5, (S or R)-2-chloro-N,N-dimethyl-4-(4-(1-(2-phenyl-tetrahydrofuran-2-carbonyl)piperidin-4-yl)butoxy)benzamide] were 91 nM, 54%, “No IP” and 0%.
Regarding `CC(C)(C(=O)N1CCC2(CC1)CC(CCOc1ccc(C(=O)N3CCCC3)c(Cl)c1)C2)c1ccccc1` [Example 34-3, 1-(2-(2-(3-chloro-4-(pyrrolidine-1-carbonyl)phenoxy)ethyl)-7-azaspiro[3.5]nonan-7-yl)-2-methyl-2-phenylpropan-1-one], the EC50 in test [1] worked out at 70 nM; in test [2] (setting [3]), 292 nM. For the same molecule, the values for the Emax in test [1] and in test [2] (setting [4]) were 65% and 13%, respectively.
Consider `CN(C)C(=O)c1ccc(OC[C@@H](F)CCC2CCN(C(=O)[C@](O)(c3ccccc3)C(F)(F)F)CC2)cc1Cl` (single isomer, unassigned) [Example 20-2, 2-chloro-4-((S or R)-2-fluoro-4-(1-((R or S)-3,3,3-trifluoro-2-hydroxy-2-phenylpropanoyl)piperidin-4-yl)butoxy)-N,N-dimethylbenzamide], for which the EC50 in test [1] turned out to be 71 nM; in test [2] (potency (Inflection Point), compound-induced co-activator recruitment, TR-FRET, read-out: LXR alpha IP) it was 1490 nM. Also, the Emax in test [1] is 73%; in test [2] (setting [4]), 25%.
On to `COc1cccc(C(O)(C(=O)N2CCC3(CCC3CCCOc3ccc(C(=O)N(C)C)c(Cl)c3)CC2)C(F)(F)F)c1` (single isomer, unassigned) [Example 36-1, 2-chloro-N,N-dimethyl-4-(3-(7-((R or S)-3,3,3-trifluoro-2-hydroxy-2-(3-methoxyphenyl)propanoyl)-7-azaspiro[3.5]nonan-1-yl)propoxy)benzamide], for which, in test [1], the EC50 is 66 nM and the Emax is 52%. For the same molecule, in test [2] (efficacy (% Emax) in relation to reference dual agonist T0901317, read-out: LXR alpha actiivty at max dose), the Emax came out at 3%. Further, the “LXR alpha IP” value in test [2] (setting [5]) was “No IP”.
In test [1], `CN(C)C(=O)c1ccc(OCCC2CC23CCN(C(=O)C2(c4cncnc4)CCC2)CC3)cc1Cl` (single isomer, unassigned) [Example 12-19, (S or R)-2-chloro-N,N-dimethyl-4-(2-(6-(1-(pyrimidin-5-yl)cyclobutanecarbonyl)-6-azaspiro[2.5]octan-1-yl)ethoxy)benzamide] came in with an EC50 of 426 nM. Further, the results for the Emax in test [1] and in test [2] (setting [4]) were 12% and 14%, respectively. Further, the “LXR alpha IP” value in test [2] (setting [5]) was “No IP”.
Taken in the same sequence, the figures for `COc1cccc([C@](O)(C(=O)N2CCC(CC[C@H](C)COc3ccc(C(=O)N(C)C)c(Cl)c3)CC2)C(F)(F)F)c1` (single isomer, unassigned) [Example 23-2, 2-chloro-N,N-dimethyl-4-((S or R)-2-methyl-4-(1-((S or R)-3,3,3-trifluoro-2-hydroxy-2-(3-methoxyphenyl)propanoyl)piperidin-4-yl)butoxy)benzamide] were 19 nM, 53%, 0% and “No IP”.
For the molecule `COc1cccc([C@@](O)(C(=O)N2CCC(CCCCOc3ccc(C(=O)N(C)C)c(C#N)n3)CC2)C(F)(F)F)c1` (single isomer, unassigned) [Example 4-2, (R or S)-2-cyano-N,N-dimethyl-6-(4-(1-(3,3,3-trifluoro-2-hydroxy-2-(3-methoxyphenyl)propanoyl)piperidin-4-yl)butoxy) nicotinamide], the EC50 in test [1] was determined as 12 nM; in test [2] (setting [3]) it was 488 nM. The Emax is 81% in test [1] and 28% in test [2] (setting [4]).
